Experimental data published in patent US20060223743A1, “Metabolites of cyclosporin analogs” (priority 2004, published 2006).

System: calcineurin
Test: Calcineurin activity assay in whole blood lysates (dephosphorylation of 32P-labelled 19 amino acid peptide substrate)
Type: biochemical
Details: in the presence of okadaic acid
Description: Calcineurin activity was assayed using a modification of the method previously described by Fruman et al. (A Proc Natl Acad Sci USA, 1992) and in U.S. Pat. No. 6,605,593. Whole blood lysates are evaluated for their ability to dephosphorylate a ^32P-labelled 19 amino acid peptide substrate in the presence of okadaic acid, a phosphatase-type 1 and 2 inhibitor. Background phosphatase 2C activity (CsA and okadaic acid resistant activity) is determined and subtracted from each sample, with the assay performed in the presence and absence of excess added ISA247. The remaining phosphatase activity is taken as calcineurin activity.

For `C=C/C=C/C[C@@H](C)[C@@H](O)[C@H]1C(=O)N[C@@H](CC)C(=O)N(C)CC(=O)N(C)[C@@H](CC(C)C)C(=O)N[C@@H](C(C)C)C(=O)N(C)[C@@H](CC(C)C)C(=O)N[C@@H](C)C(=O)N[C@H](C)C(=O)N(C)[C@@H](CC(C)C)C(=O)N(C)[C@@H](CC(C)C)C(=O)N(C)[C@@H](C(C)C)C(=O)N1C` [Trans ISA247], the “Metabolite EC50” value (calcineurin inhibition) was 0.208 µg/mL and the “Metabolite Emax” value (percent calcineurin inhibition) was 107%.
